Measurements as given in PMC12655529, “Serendipitous Hinge Modulation Hypothetically Reprograms Caerin 1.1-LC Antibacterial Mechanism and Gram-Negative Selectivity” (Pharmaceutics, 2025).
Ends that are not written are not given here.

Experiments:
[1] = system: Acinetobacter baumannii ATCC BAA-747; assay type: cell-based; conditions: ATCC BAA-747
Experimental: (§2) The antimicrobial activities of the peptides were evaluated by determining their minimal inhibitory concentration (MIC) and minimal bactericidal concentration (MBC) values following reported protocols [20]. The tested microorganisms included seven Gram-negative bacterial strains (Escherichia coli ATCC 8739, E. coli ATCC-BAA 2340, E. coli NCTC 13846, Klebsiella pneumoniae ATCC 43816, K. pneumoniae ATCC BAA-2342, Pseudomonas aeruginosa ATCC 9027, Acinetobacter baumannii ATCC BAA-747), three Gram-positive bacterial strains (Staphylococcus aureus ATCC 6538, Enterococcus faecalis NCTC 12697, MRSA NCTC 12493, and the fungal strain Candida albicans ATCC 10231. For the assay, each bacterial strain was cultured overnight at 37 °C in 100 mL of medium in a flask. The cultures were then subcultured to reach the logarithmic growth phase and diluted to 5 × 10^5 CFU/mL. Peptide samples were serially diluted two-fold in microplates, with concentrations ranging from 128 μM to 1 μM. The diluted bacterial suspensions were mixed with the peptide solutions and incubated overnight at 37 °C. The MIC values were determined by measuring the absorbance of each well using a Synergy HT plate reader (Agilent, Cheshire, UK). For MBC determination, aliquots from wells showing no visible growth were inoculated onto agar plates to assess bacterial viability. Each experiment was repeated independently three times and conducted in three independent replicates.

[2] = system: Staphylococcus aureus ATCC 6538; assay type: cell-based; conditions: ATCC 6538
[3] = system: Enterococcus faecalis NCTC 12697; assay type: cell-based; conditions: NCTC 12697
Experimental: as §2

[4] = system: HMEC-1 human microvascular endothelial cells; assay type: cell-based; conditions: 24 h
Experimental: (§1) The peptide’s cytotoxicity against normal cell lines was detected by the MTT assay. Following resuscitation from cryopreservation (−80 °C), the cell line underwent multiple passages to ensure viability and adaptation. Cells were then seeded into 96-well plates and maintained at 37 °C in a 5% CO2 humidified atmosphere for 24 h to achieve proper adherence. After incubation, cells were serum-starved for 4 h using foetal bovine serum (FBS)-free medium (ThermoFisher, Waltham, MA, USA) to synchronise cell cycle progression. Peptide solutions were prepared at concentrations ranging from 128 μM to 1 μM (serial two-fold dilutions) and applied to the cells. Following peptide treatment, 10 μL of MTT (3-(4,5-dimethylthiazol-2-yl)-2,5-diphenyltetrazolium bromide) solution (5 mg/mL in PBS) was added to each well and incubated for 2 h at 37 °C. The medium was then carefully aspirated, and 100 μL of DMSO was added to dissolve the formazan crystals. Absorbance was measured at 570 nm using a microplate reader (Agilent, Cheshire, UK), with a reference wavelength of 630 nm to account for background interference. Experiments were conducted in triplicate and repeated three independent times.

[5] = system: HaCaT human keratinocytes; assay type: cell-based; conditions: 24 h
Experimental: as §1

[6] = system: RAW 264.7 murine macrophages; assay type: cell-based; conditions: 24 h
Experimental: as §1

[7] = system: MRC-5 human embryonic lung fibroblasts; assay type: cell-based; conditions: 24 h
Experimental: as §1

[8] = system: HEK 293 human embryonic kidney cells; assay type: cell-based; conditions: 24 h
Experimental: as §1

[9] = system: Pseudomonas aeruginosa ATCC 9027; assay type: cell-based
Experimental: as §2

[10] = system: Klebsiella pneumoniae ATCC 43816; assay type: cell-based; conditions: ATCC 43816
E. coli NCTC 13846 = assay type: cell-based, Escherichia coli
Experimental: as §2

E. coli ATCC BAA-2340 = assay type: cell-based, Escherichia coli
Experimental: as §2

Gram-positive bacteria = assay: Geometric mean MIC and therapeutic index, Gram-positive; assay type: cell-based; conditions: geometric mean of MICs
MRSA NCTC 12493 = assay type: cell-based, Staphylococcus aureus
Experimental: as §2

[11] = system: Galleria mellonella larvae; assay: In vivo toxicity in larvae; conditions: uninfected G. mellonella larvae, injection at 1×, 2×, 4× MIC, n = 10 per group, observed five days
E. coli (ATCC-BAA 2340) = assay type: cell-based, Escherichia coli; conditions: ATCC-BAA 2340
Summary of the method: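 E. coli MIC by broth microdilution, determined after bacteria were pre-exposed to media with 150 mM NaCl, 4.5 mM KCl, 2 mM CaCl2, 1 mM MgCl2, 8 µM ZnCl2, 6 µM NH4Cl, 4 µM FeCl3, or 10% FBS. Three independent experiments, each in triplicate.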

[12] = system: K. pneumoniae ATCC BAA-2342; assay type: cell-based, Klebsiella pneumoniae
horse red blood cells = assay: Haemolysis assay; assay type: cell-based; conditions: concentration inducing 10% haemolysis of horse erythrocytes; 4% (v/v) in PBS, 2 h, 37 °C, absorbance 570 nm; no haemolysis at maximum testing concentration (128 μM) recorded as 256 μM
Summary of the method: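 Horse erythrocytes, PBS-washed, at 4% (v/v) in PBS were exposed to peptide over a concentration range for 2 h at 37 °C. Supernatant absorbance at 570 nm was read after centrifugation. Haemolysis % was normalised between PBS blank (0%) and 0.1% Triton X-100 (100%).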

[13] = system: Escherichia coli ATCC 8739; assay type: cell-based; conditions: ATCC 8739
Experimental: as §2

Substance: GLLSVLGSLKLIVPHVVPLIAEKL-NH2 [Caerin 1.1-LC]
- MBC, A. baumannii (ATCC BAA-747) [1]: 128 µM
- MIC, A. baumannii (ATCC BAA-747) [1]: 16 µM
- MBC, S. aureus (ATCC 6538) [2]: 128 µM
- MIC, S. aureus (ATCC 6538) [2]: 64 µM
- MBC, E. faecalis (NCTC 12697) [3]: >128 µM
- MIC, E. faecalis (NCTC 12697) [3]: >128 µM
- IC50 [4]: 79.3 µM
- IC50 [5]: 61.2 µM
- IC50 [6]: 6 µM
- IC50 [7]: 14.8 µM
- IC50 [8]: 10.8 µM
- MBC, P. aeruginosa (ATCC 9027) [9]: 128 µM
- MIC, P. aeruginosa (ATCC 9027) [9]: 64 µM
- MBC, K. pneumoniae (ATCC 43816) [10]: 64 µM
- MIC, K. pneumoniae (ATCC 43816) [10]: 16 µM
- MBC, E. coli (NCTC 13846) (E. coli NCTC 13846): 32 µM
- MIC, E. coli (NCTC 13846) (E. coli NCTC 13846): 4 µM
- MBC, E. coli (ATCC BAA-2340) (E. coli ATCC BAA-2340): 16 µM
- MIC, E. coli (ATCC BAA-2340) (E. coli ATCC BAA-2340): 8 µM
- GM MIC Gram-Positive (Gram-positive bacteria): 14.25 µM
- MBC, MRSA (NCTC 12493) (MRSA NCTC 12493): 128 µM
- MIC, MRSA (NCTC 12493) (MRSA NCTC 12493): 32 µM
- toxicity to larvae (mortality) [11]: complete mortality by day four or five post-injection
- MIC, Ca^2+ (E. coli (ATCC-BAA 2340)): 64 µM
- MIC, FBS (E. coli (ATCC-BAA 2340)): 32 µM
- MIC, Fe^3+ (E. coli (ATCC-BAA 2340)): 16 µM
- MIC, K^+ (E. coli (ATCC-BAA 2340)): 16 µM
- MIC, Mg^2+ (E. coli (ATCC-BAA 2340)): 32 µM
- MIC, NH4^+ (E. coli (ATCC-BAA 2340)): 16 µM
- MIC, Na^+ (E. coli (ATCC-BAA 2340)): 16 µM
- MBC, K. pneumoniae (ATCC BAA-2342) [12]: 64 µM
- MIC, K. pneumoniae (ATCC BAA-2342) [12]: 16 µM
- HC10 (horse red blood cells): 37.5 µM
- MBC, E. coli (ATCC 8739) [13]: 64 µM
- MIC, E. coli (ATCC 8739) [13]: 16 µM
